Laboratory results published in patent US6339077B1, “Substituted 4-benzylaminoquinolines and their hetero analogs, process for their preparation, pharmaceuticals containing these compounds and use thereof” (Aventis Pharma Deutschland GmbH, priority 1999, dated 2002).
Where a name gives a salt, the structure may show the parent alone.

What was measured:
[1] = biological target: T1, human NHE-3 protein (expressed in the LAP1 cell line) (Homo sapiens, UniProt P48764); experiment: Inhibition of sodium/proton exchanger subtype 3: recovery of intracellular pH after acidification (BCECF fluorescence); type: cell-based; conditions: pHi recovery as percentage of the maximum recovery, read-out: remaining activity of hNHE3
T1 construct: expressed in transfected cells; host or cells: LAP1 cell line
T1 sequence (P48764 26-834): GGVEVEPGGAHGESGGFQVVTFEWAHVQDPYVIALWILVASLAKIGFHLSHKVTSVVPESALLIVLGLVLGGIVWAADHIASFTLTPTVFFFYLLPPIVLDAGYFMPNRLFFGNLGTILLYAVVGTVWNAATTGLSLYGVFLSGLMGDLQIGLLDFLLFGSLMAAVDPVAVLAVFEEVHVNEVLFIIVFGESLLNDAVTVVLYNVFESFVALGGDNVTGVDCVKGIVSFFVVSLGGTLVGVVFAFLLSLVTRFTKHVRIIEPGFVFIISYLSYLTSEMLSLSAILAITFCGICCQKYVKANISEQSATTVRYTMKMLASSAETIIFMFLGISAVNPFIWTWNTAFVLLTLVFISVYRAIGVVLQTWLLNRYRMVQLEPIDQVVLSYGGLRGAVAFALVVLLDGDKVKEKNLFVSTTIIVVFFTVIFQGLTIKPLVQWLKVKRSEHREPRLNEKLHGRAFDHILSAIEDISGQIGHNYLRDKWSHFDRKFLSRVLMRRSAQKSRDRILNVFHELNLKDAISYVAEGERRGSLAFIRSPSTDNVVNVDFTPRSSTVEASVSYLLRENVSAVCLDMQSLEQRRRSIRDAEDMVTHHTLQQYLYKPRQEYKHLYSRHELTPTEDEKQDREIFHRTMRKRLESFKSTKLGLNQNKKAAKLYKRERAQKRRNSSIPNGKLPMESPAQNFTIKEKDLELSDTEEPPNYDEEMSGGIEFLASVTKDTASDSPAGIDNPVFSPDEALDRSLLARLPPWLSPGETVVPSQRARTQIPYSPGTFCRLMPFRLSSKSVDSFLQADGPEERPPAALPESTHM
Protocol: Biological testing of the novel compounds was accomplished by measuring inhibition of the sodium/proton exchanger subtype 3.
The remaining activity of the human NHE-3 protein (expressed in the LAP1 cell line) was determined by measuring the recovery in the intracellular pH (pHi) after an acidification, which starts when the NHE is capable of functioning, even under bicarbonate-free conditions. For this purpose, the pHi was determined using the pH-sensitive fluorescent dye BCECF (Calbiochem, the precursor BCECF-AM is employed). The cells were initially loaded with BCECF. […] The intracellular acidification was induced by addition of 975 μl of an NH4Cl-free buffer (see below) to 25 μl aliquots of the cells incubated in NH4Cl buffer. The subsequent rate of pH recovery was recorded for 3 minutes. To calculate the inhibitory power of the substances tested, the cells were initially investigated in buffers in which complete or absolutely no pH recovery took place. […] Test solutions of the substances of interest were made up in the Na^+-containing buffer. Recovery of the intracellular pH at the tested concentration of a substance was expressed as a percentage of the maximum recovery.

Structure (SMILES) | melting point | remaining activity at 30 µM [1] [%]
CC(=O)c1c(C)nc2ccccc2c1NCc1ccc(C(=O)NCCO[C@H]2CC[C@@]3(C)C(C2)C[C@@H](O)C2C3C[C@H](O)[C@@]3(C)C2CC[C@@H]3[C@H](C)CCC(=O)O)cc1 (stereo partly drawn) [Example 20, 4-[3β-(2-{4-[(3-Acetyl-2-methylquinolin-4-ylamino)methyl]benzoylamino)-ethoxy)-7α,12α-dihydroxy-10β,13β-dimethylhexadecahydrocyclopenta[a]phenanthren-17β-yl]pentanoic acid] | > 145 °C (dec.) | 56
COC(=O)c1c(C)nc2cccc(C)c2c1NCc1ccc(C#CC2(O)CCC3(C)C(CC(O)C4C3CC(O)C3(C)C4CC[C@@H]3C(C)CCC(=O)O)C2)cc1 (stereo partly drawn) [Example 11, Methyl 2,5-dimethyl-4-{4-[1-(3α,7α,12α-trihydroxy-10β,13β-dimethyl-17β-(3-carboxy-1-methylpropyl)hexadecahydrocyclopenta[a]phenanthren-3-yl)ethyn-2-yl]benzylamino}quinoline-3-carboxylate] | > 155 °C | 61
CC(=O)c1c(C)nc2ccccc2c1NCc1cccc(C#CC2(O)CC[C@@]3(C)C(CC(O)C4C3CC(O)[C@@]3(C)C4CC[C@@H]3[C@H](C)CCC(=O)O)C2)c1 (stereo partly drawn) [Example 13, 2-Methyl-3-acetyl-4-{3-[1-(3α,7α,12α-trihydroxy-10β,13β-dimethyl-17β-(3-carboxy-1-methylpropyl)hexadecahydrocyclopenta[a]phenanthren-3-yl)ethyn-2-yl]benzylamino}quinoline] | > 195 °C (dec.) | 40
CC(=O)c1c(C)nc2ccccc2c1NCc1cccc(CCC2(O)CC[C@@]3(C)C(CC(O)C4C3CC(O)[C@@]3(C)C4CC[C@@H]3[C@H](C)CCC(=O)O)C2)c1 (stereo partly drawn) [Example 14, 2-Methyl-3-acetyl-4-{3-[1-(3α,7α,12α-trihydroxy-10β,13β-dimethyl-17β-(3-carboxy-1-methylpropyl)hexadecahydrocyclopenta[a]phenanthren-3-yl)eth-2-yl]benzylamino}quinoline] | > 170 °C (dec.) | 52

The next lines start with results.

melting point | Structure (SMILES) | remaining activity at 30 µM [1] [%]
> 180 °C (dec.) | COC(=O)c1c(C)nc2cccc(C)c2c1NCc1ccc(CCC2(O)CCC3(C)C(CC(O)C4C3CC(O)C3(C)C4CC[C@@H]3C(C)CCC(=O)O)C2)cc1 (some centres unmarked) | 
> 185 °C (dec.) | COC(=O)c1c(C)nc2ccc(CCC3(O)CCC4(C)C(CC(O)C5C4CC(O)C4(C)C5CC[C@@H]4C(C)CCC(=O)O)C3)cc2c1NCc1ccccc1 (some centres unmarked) | 
180 °C | Cc1nc2ccccc2c(NCc2ccccc2)c1C(=O)NCCOC1CCC2(C)C(C1)CC(O)C1C2CC(O)C2(C)C1CC[C@@H]2C(C)CCC(=O)NCCS(=O)(=O)O (some centres unmarked) (as salt: trifluoroacetate) | 
> 190 °C (dec.) | CCc1nc2ccccc2c(NCc2ccc(CCC3(O)CCC4(C)C(CC(O)C5C4CC(O)C4(C)C5CC[C@@H]4C(C)CCC(=O)O)C3)cc2)c1C(=O)OC (some centres unmarked) | 
143 °C | Cc1nc2ccccc2c(NCc2ccccc2)c1C(=O)NCCOC1CCC2(C)C(C1)CC(O)C1C2CC(O)C2(C)C1CC[C@@H]2C(C)CCC(=O)O (some centres unmarked) | 
150 °C | Cc1nc2ccccc2c(NCc2ccc(C#CC3(O)CCC4(C)C(CC(O)C5C4CC(O)C4(C)C5CC[C@@H]4C(C)CCC(=O)O)C3)cc2)c1C(=O)OC(C)C (some centres unmarked) | 
